Reference: patent US20230398130A1, “METHODS AND COMPOSITIONS FOR DIFFERENTIATING STEM CELLS” (Massachusetts Institute of Technology, priority 2020, published 2023)

How the values were obtained:
ISC-enriched organoids [1] = assay: Primary screen, 384-well 2.5-D organoid differentiation (ENR+CD, 6 days): basal lysozyme secretion (LYZ.NS); assay type: cell-based, murine; settings: for Dose.FC.LYZ.NS (log 2 fold change, basal lysozyme secretion) / Dose.FC.LYZ.NS (log 2 fold change): vs plate median; for Dose.FC.LYZ.NS: FC vs plate median; for Z.LYZ.NS: standard z score of FC
Text: (§1) High-throughput screening.

ISC-enriched organoids [2] = assay: Primary screen, 384-well 2.5-D organoid differentiation (ENR+CD, 6 days, Target Selective Inhibitor Library, vs whole-plate median): ATP (CellTiter-Glo 3D, CTG); settings: for Dose.FC.CTG (log 2 fold change, ATP) / Dose.FC.CTG (log 2 fold change): vs plate median; for Dose.FC.CTG: FC vs plate median; for Z.CTG: standard z score of FC
ISC-enriched organoids [3] = assay: Primary screen, 384-well 2.5-D organoid differentiation (ENR+CD, 6 days): carbachol-induced lysozyme secretion (LYZ.S); assay type: cell-based, murine; settings: for Dose.FC.LYZ.S (log 2 fold change, carbachol-induced lysozyme secretion) / Dose.FC.LYZ.S (log 2 fold change): vs plate median; for Dose.FC.LYZ.S / Dose.FC.LYZ.S (log 2 fold change): primary screen; for Dose.FC.LYZ.S: FC vs plate median
Text: as §1

Molecule | Z.LYZ.NS (standard z score) (ISC-enriched organoids [1]; Dose 0.08 uM, primary screen) | Dose.FC.LYZ.NS (log 2 fold change) (ISC-enriched organoids [1]; Dose 0.08 uM, primary screen) | Z.LYZ.NS (standard z score) (ISC-enriched organoids [1]; Dose 0.40 uM, primary screen) | Dose.FC.LYZ.NS (log 2 fold change) (ISC-enriched organoids [1]; Dose 0.40 uM, primary screen) | Z.LYZ.NS (standard z score) (ISC-enriched organoids [1]; Dose 2.00 uM, primary screen) | Dose.FC.LYZ.NS (log 2 fold change) (ISC-enriched organoids [1]; Dose 2.00 uM, primary screen) | Z.LYZ.NS (standard z score) (ISC-enriched organoids [1]; Dose 10.00 uM, primary screen) | Dose.FC.LYZ.NS (log 2 fold change) (ISC-enriched organoids [1]; Dose 10.00 uM, primary screen) | Z.CTG (standard z score) (ISC-enriched organoids [2]; Dose 0.08 uM, primary screen) | Dose.FC.CTG (log 2 fold change) (ISC-enriched organoids [2]; Dose 0.08 uM, primary screen) | Z.CTG (standard z score) (ISC-enriched organoids [2]; Dose 0.40 uM, primary screen) | Dose.FC.CTG (log 2 fold change) (ISC-enriched organoids [2]; Dose 0.40 uM, primary screen) | Z.CTG (standard z score) (ISC-enriched organoids [2]; Dose 2.00 uM, primary screen) | Dose.FC.CTG (log 2 fold change) (ISC-enriched organoids [2]; Dose 2.00 uM, primary screen) | Z.CTG (standard z score) (ISC-enriched organoids [2]; Dose 10.00 uM, primary screen) | Dose.FC.CTG (log 2 fold change) (ISC-enriched organoids [2]; Dose 10.00 uM, primary screen) | Dose.FC.LYZ.S (log 2 fold change) (ISC-enriched organoids [3]; Dose 0.08 uM) | Dose.FC.LYZ.S (log 2 fold change) (ISC-enriched organoids [3]; Dose 0.40 uM) | Dose.FC.LYZ.S (log 2 fold change) (ISC-enriched organoids [3]; Dose 2.00 uM) | Dose.FC.LYZ.S (log 2 fold change) (ISC-enriched organoids [3]; Dose 10.00 uM) | other results
Cl.N[C@@H]1C[C@H]1c1ccccc1 (racemic) [Tranylcypromine (2-PCPA) HCl] | – | – | – | – | – | – | – | – | – | – | – | – | – | – | – | – | – | – | – | – | Z.LYZ.NS (standard z score) (ISC-enriched organoids [1]; dose 0.08 uM): 0.285; Dose.FC.LYZ.NS (log 2 fold change, basal lysozyme secretion) (ISC-enriched organoids [1]; dose 0.08 uM): 0.033; Z.LYZ.NS (standard z score) (ISC-enriched organoids [1]; dose 0.40 uM): −0.426; Dose.FC.LYZ.NS (log 2 fold change, basal lysozyme secretion) (ISC-enriched organoids [1]; dose 0.40 uM): −0.049; Z.LYZ.NS (standard z score) (ISC-enriched organoids [1]; dose 2.00 uM): 0.423; Dose.FC.LYZ.NS (log 2 fold change, basal lysozyme secretion) (ISC-enriched organoids [1]; dose 2.00 uM): 0.049; Z.LYZ.NS (standard z score) (ISC-enriched organoids [1]; dose 10.00 uM): −0.389; Dose.FC.LYZ.NS (log 2 fold change, basal lysozyme secretion) (ISC-enriched organoids [1]; dose 10.00 uM): −0.045; Z.CTG (standard z score) (ISC-enriched organoids [2]; dose 0.08 uM): −0.153; Dose.FC.CTG (log 2 fold change, ATP) (ISC-enriched organoids [2]; dose 0.08 uM): −0.064; Z.CTG (standard z score) (ISC-enriched organoids [2]; dose 0.40 uM): 0.148; Dose.FC.CTG (log 2 fold change, ATP) (ISC-enriched organoids [2]; dose 0.40 uM): 0.062; Z.CTG (standard z score) (ISC-enriched organoids [2]; dose 2.00 uM): 0.128; Dose.FC.CTG (log 2 fold change, ATP) (ISC-enriched organoids [2]; dose 2.00 uM): 0.053; Z.CTG (standard z score) (ISC-enriched organoids [2]; dose 10.00 uM): −1.274; Dose.FC.CTG (log 2 fold change, ATP) (ISC-enriched organoids [2]; dose 10.00 uM): −0.533; Dose.FC.LYZ.S (log 2 fold change, carbachol-induced lysozyme secretion) (ISC-enriched organoids [3]; dose 0.08 uM): 0.050; Dose.FC.LYZ.S (log 2 fold change, carbachol-induced lysozyme secretion) (ISC-enriched organoids [3]; dose 0.40 uM): −0.037; Dose.FC.LYZ.S (log 2 fold change, carbachol-induced lysozyme secretion) (ISC-enriched organoids [3]; dose 2.00 uM): 0.036; Dose.FC.LYZ.S (log 2 fold change, carbachol-induced lysozyme secretion) (ISC-enriched organoids [3]; dose 10.00 uM): −0.096
OG-L002 | – | – | – | – | – | – | – | – | – | – | – | – | – | – | – | – | – | – | – | – | Dose.FC.LYZ.NS (ISC-enriched organoids [1]; Dose 0.08 uM, primary screen): 0.000 log 2 fold change; Z.LYZ.NS (ISC-enriched organoids [1]; Dose 0.08 uM): −0.001; Dose.FC.LYZ.NS (ISC-enriched organoids [1]; Dose 0.40 uM, primary screen): −0.011 log 2 fold change; Z.LYZ.NS (ISC-enriched organoids [1]; Dose 0.40 uM): −0.097; Dose.FC.LYZ.NS (ISC-enriched organoids [1]; Dose 2.00 uM, primary screen): 0.021 log 2 fold change; Z.LYZ.NS (ISC-enriched organoids [1]; Dose 2.00 uM): 0.182; Dose.FC.LYZ.NS (ISC-enriched organoids [1]; Dose 10.00 uM, primary screen): −0.091 log 2 fold change; Z.LYZ.NS (ISC-enriched organoids [1]; Dose 10.00 uM): −0.790; Dose.FC.CTG (ISC-enriched organoids [2]; Dose 0.08 uM, primary screen): 0.094 log 2 fold change; Z.CTG (ISC-enriched organoids [2]; Dose 0.08 uM): 0.225; Dose.FC.CTG (ISC-enriched organoids [2]; Dose 0.40 uM, primary screen): 0.138 log 2 fold change; Z.CTG (ISC-enriched organoids [2]; Dose 0.40 uM): 0.329; Dose.FC.CTG (ISC-enriched organoids [2]; Dose 2.00 uM, primary screen): 0.128 log 2 fold change; Z.CTG (ISC-enriched organoids [2]; Dose 2.00 uM): 0.306; Dose.FC.CTG (ISC-enriched organoids [2]; Dose 10.00 uM, primary screen): 0.094 log 2 fold change; Z.CTG (ISC-enriched organoids [2]; Dose 10.00 uM): 0.225; Dose.FC.LYZ.S (ISC-enriched organoids [3]; Dose 0.08 uM): 0.023 log 2 fold change; Dose.FC.LYZ.S (ISC-enriched organoids [3]; Dose 0.40 uM): 0.026 log 2 fold change; Dose.FC.LYZ.S (ISC-enriched organoids [3]; Dose 2.00 uM): −0.001 log 2 fold change; Dose.FC.LYZ.S (ISC-enriched organoids [3]; Dose 10.00 uM): −0.084 log 2 fold change
Cl.NC(=O)c1cnc(N[C@@H]2CCCC[C@@H]2N)nc1Nc1cccc(-n2nccn2)c1 [PRT062607 (P505-15, BIIB057) HCl] | 0.037 | 0.004 | 0.194 | 0.022 | −0.280 | −0.032 | −1.837 | −0.211 | −0.219 | −0.092 | 0.191 | 0.080 | −0.179 | −0.075 | −0.788 | −0.330 | −0.033 | 0.122 | −0.123 | −0.298 | –
C[S+]([O-])c1ccc(-c2nc(-c3ccc(F)cc3)c(-c3ccncc3)[nH]2)cc1 (centres unmarked) [SB203580] | 0.805 | 0.092 | 1.109 | 0.127 | 0.453 | 0.052 | 0.199 | 0.023 | 0.479 | 0.201 | 0.356 | 0.149 | 0.567 | 0.237 | 0.435 | 0.182 | 0.148 | 0.098 | 0.077 | 0.069 | –
